Common to all, as to assay: DTP human tumour cell line panel, 48 h
Assay [1] deals with HOP-92 NSCLC.
The subject of assay [2] is 786-0 renal.
Assay [3] concerns M14 melanoma.
Assay [4] deals with HCT-116 colon.
Assay [5] concerns NCI-H522 lung.
Assay [6] has as its system IGROV1 ovarian.
Assay [7] concerns SN12C renal.
Assay [8] relates to EKVX NSCLC.
Assay [9] concerns SK-OV-3 ovarian.
Assay [10] has as its system MCF7 breast.

These results are taken from PubChem BioAssay (NCI).

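Exposure lasted 48 hours, with cells grown in 96-well plates and compounds tested at five concentrations. GI50: concentration for 50% inhibition of growth. TGI: concentration producing complete growth inhibition.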 A value given as a limit tells only on which side of the number the result lay.

Take `CCCCCCC[CH2][Sn]1([CH2]CCCCCCC)[O]C(=O)c2cccnc2[O]1`: the GI50 in assay [1], in assay [2], in assay [3], in [4], in assay [5] and in assay [6] was over 100 µM in each case. For the same molecule, the GI50 in [7], in assay [8] and in [9] was over 100 µM in each case. Also, the TGI in assay [1], in [2], in [3], in assay [4], in [5] and in assay [6] was over 100 µM each time. Moreover, the TGI in assay [7], in [8] and in [9] was over 100 µM throughout.
For the molecule `CCOc1ccc(NC(=O)CC2C(=O)Nc3ccccc3S2(=O)=O)cc1` (configuration not stated), the concentration for total growth inhibition (TGI) is 55.5 µM in assay [1]; over 100 µM in assay [2]; over 100 µM in assay [4]; over 100 µM in assay [5]; over 100 µM in assay [6]; over 100 µM in [7]. The TGI in assay [8] was over 100 µM.
Regarding `C=CCc1cc(OC)c2c(c1)C(OC)CC(c1ccc(OC)c(OC)c1)O2` (configuration not stated), the total growth inhibition concentration (TGI) in assay [2], in [3], in assay [4], in assay [6], in [7] and in assay [8] was over 100 µM each time. In [9], this molecule showed a TGI of over 100 µM.
`CCSc1c2ccccc2c(-c2nc(F)nc(F)n2)n1CCc1ccccc1`: the TGI in assay [1], in assay [2], in [3], in assay [4], in [5] and in [7] was over 100 µM in each case. This molecule had a TGI in [8] of over 100 µM.
For the molecule `CCn1c(-c2nonc2N)nc2cncc(C(=O)N3CC[C@H](N)C3)c21`, the GI50 in assay [10] was 14.1 µM; in assay [2], over 20.4 µM; in assay [3], 24.6 µM; in assay [4], 9.9 µM; in assay [5], over 9.56 µM; in assay [6] it was over 25 µM. Moreover, the GI50 in assay [7] and in assay [9] was over 25 µM throughout. Moreover, the TGI in assay [10], in [2], in [3], in [4], in assay [5] and in assay [6] was over 25 µM in each case. In addition, the TGI in assay [7] and in [9] was over 25 µM throughout.
For `Nc1ncnc2c1ncn2C1CC(OCc2ccccc2[N+](=O)[O-])C(CO)O1` (configuration not stated), the TGI was over 50 µM in assay [1]; over 50 µM in assay [2]; over 50 µM in assay [3]; over 50 µM in [4]; 35.9 µM in [5]; over 50 µM in assay [6]. Further, the TGI in assay [7], in assay [8] and in [9] was over 50 µM each time.
As for `CC1(c2ccc(Cl)cc2)C2C(=O)NC(=O)C1C(=O)NC2=O` (configuration not stated), the TGI in assay [1], in assay [2], in assay [3], in assay [5], in assay [6] and in assay [7] was over 100 µM throughout. Moreover, the TGI in [8] and in assay [9] was over 100 µM throughout.
As to `CCOC(=O)C1(C)CCCCC(=O)N1` (configuration not stated), the concentration for total growth inhibition (TGI) in assay [1], in assay [2], in assay [3], in [6], in [7] and in assay [8] was over 100 µM each time. In assay [9], this molecule came in with a TGI of over 100 µM.
Consider `COc1ccc(/C=C/C(=O)c2sc(-n3nc(-c4ccccc4)cc3-c3ccccc3)nc2C)cc1`, for which the GI50 in assay [2] was over 100 µM; in [3] it was over 100 µM; in [4] it was over 100 µM; in assay [6], over 100 µM; in [8] it was 51.1 µM; in [9], over 100 µM. Moreover, the TGI in [2], in assay [3], in assay [4], in [5], in [6] and in assay [7] was over 100 µM each time. In addition, the TGI in [8] and in [9] was over 100 µM in each case.
`Cn1nc(-c2ccccc2)c2c(/C=C/c3ccccc3)onc2c1=O`: the TGI in [1] is 98.2 µM; in [2] it was over 100 µM; in assay [3], over 100 µM; in [4], over 100 µM; in assay [5], over 100 µM; in [6], over 100 µM. For the same molecule, the TGI in assay [7], in [8] and in assay [9] was over 100 µM each time.
As for `CC(=O)O[C@H]1CC[C@@]2(C)C(=CC[C@@H]3C2CC[C@]2(C)Nc4nc5ccccc5cc4CC32)C1` (some centres not stated), the TGI was 10.7 µM in assay [2]; 5.03 µM in assay [3]; 3.8 µM in [4]; 24.1 µM in assay [5]; 30 µM in assay [6]; 20.1 µM in [7]. Besides, the TGI was 18.8 µM in [8] and 8.4 µM in assay [9].
On to `CC(=O)C1=C(O)C2C3c4c[nH]c5cccc(c45)CC3C(C)(C)N2C1=O` (configuration not stated), for which the TGI in assay [1] is over 100 µM; in assay [2] it was over 100 µM; in [3] it was over 100 µM; in [5] it was 63.4 µM; in assay [6], over 100 µM; in assay [8], over 100 µM. This molecule also displayed a TGI in assay [9] of over 100 µM.
As to `CN1c2ccccc2N(C(=O)c2ccccc2)C(CC(=O)O)c2cccn21` (configuration not stated), the TGI in assay [1], in assay [2], in [3], in [5], in [6] and in [7] was over 100 µM each time. For the same molecule, the TGI in [8] and in assay [9] was over 100 µM each time.
Consider `ClC(Cl)[Si]12OCCN(CCO1)CCO2`, for which the TGI in assay [1], in assay [2], in assay [4], in assay [5], in [6] and in [7] was over 100 µM each time. The molecule further came in with a TGI in assay [9] of over 100 µM.
